Assay results as given in PubChem BioAssay AID1199 (EPA DSSTox, 2008).
The source made the active and inactive calls.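 Rule for the calls: active = a tumour-causing dose and a tumour site recorded for mice in at least one sex group; inconclusive = only government mouse studies exist and were judged inadequate; inactive = mouse studies exist but none gave tumours.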

Tested on: mouse carcinogenicity bioassay, TD50 from CPDB
Assay: DSSTox (CPDBAS) Carcinogenic Potency Database Summary Mouse Bioassay Results
Excerpt: The Carcinogenic Potency Database (CPDB) is a unique and widely used international resource of the results of over 6500 chronic, long-term animal cancer tests on over 1500 chemical substances. The CPDB provides easy access to the bioassay literature, with qualitative and quantitative analyses of both positive and negative experiments that have been published over the past 50 years in the general literature and by the National Cancer Institute/National Toxicology Program. The CPDB standardizes the diverse literature of cancer bioassays that vary widely in protocol, histopathological examination and nomenclature, and in the published author's choices of what information to provide in their papers. Results are reported in the CPDB for tests in rats, mice, hamsters, dogs, and nonhuman primates, and are based on the most positive result among all experiments for each sex-species. The DSSTox CPDBAS (all species) file incorporates data from the CPDB Summary Tables for the full list of over 1500 chemical substances tested in at least one species. Summary bioassay results for Mouse (TD50, tumor sites, male, female, both sexes) are provided in the CPDB Summary Tables and the DSSTox CPDBAS file for over 1000 chemical substances.
TD50 is a standardized quantitative measure of carcinogenic potency (analogous to an LD50) and is reported in the CPDB Summary Table for each species. Activity Score for actives is computed by mapping of LOG10 (1/TD50_Mouse_mmol) activity values spanning range [MIN, MAX] onto Integer 1-100 Activity Score range, where 100 is highest potency and 1 is lowest: Activity Score = 100 * INTEGER[(log10(1/Activity) - MIN)/(MAX […] MIN)]. If activity is reported but no TD50_Mouse_mmol value is computed, such as for a mixture, the Activity Score is assigned the activity value "50". […] Target sites are reported for each sex-species group with a positive result in the CPDB on the basis of a positive author's opinion for the particular site, using all results from both the general literature and NCI/NTP bioassays. If a chemical has two or more target sites listed, the results may be from different experiments, and a single site may be a target organ in more than one experiment, as well. Blank entry in TargetSites field indicates no results reported.

[1] = TD50_Mouse_Note: no positive results, TargetSites_Mouse_Female: no positive results
[2] = TD50_Mouse_Note: TD50 is harmonic mean of more than one positive test, TargetSites_Mouse_Female: liver
[3] = TargetSites_Mouse_BothSexes: no positive results

Compound	outcome [1]	also measured
COc1cc(-c2ccc(N=C=O)c(OC)c2)ccc1N=C=O	inactive; no positive results	
OC(c1ccc(Cl)cc1)(c1ccc(Cl)cc1)C(Cl)(Cl)Cl		Potency (TargetSites_Mouse_Female: no positive results): 0.0888 mmol/kg/day
CO[C@H]1/C=C/O[C@@]2(C)Oc3c(C)c(O)c4c(O)c(c(/C=N/N5CCN(C)CC5)c(O)c4c3C2=O)NC(=O)/C(C)=C\C=C\[C@H](C)[C@H](O)[C@@H](C)[C@@H](O)[C@@H](C)[C@H](OC(C)=O)[C@@H]1C		Potency (TargetSites_Mouse_Female: liver): 0.0408 mmol/kg/day
[O-]/[N+](=N\O)c1ccccc1		Potency (TD50_Mouse_Note: TD50 is harmonic mean of more than one positive test, TargetSites_Mouse_Female: ear Zymbals gland, harderian gland, liver, vascular system): 3.77 mmol/kg/day
C[N+](C)(C)CCO		outcome (TD50_Mouse_Note: no positive results): inactive; no positive results
NCCNc1cccc2ccccc12	inactive; no positive results	
O=C(Oc1ccccc1)Oc1ccccc1	inactive; no positive results	
CNC(=O)O/N=C/C(C)(C)SC	inactive; no positive results	
Cc1ccc2c(-c3ccccc3)nc(=O)n(C(C)C)c2c1	inactive; no positive results	
Cc1cc(Cl)ccc1N		Potency (TD50_Mouse_Note: TD50 is harmonic mean of more than one positive test, greater than ten-fold variation among TD50 values for positive res, TargetSites_Mouse_Female: vascular system): 0.145 mmol/kg/day
O=C(O)c1cccnc1	inactive; no positive results	
CN(C)[C@@H]1C(=O)C(C(N)=O)=C(O)[C@@]2(O)C(=O)C3=C(O)c4c(O)cccc4[C@@](C)(O)[C@H]3[C@H](O)[C@@H]12	inactive; no positive results	
CCCCC(CC)COC(=O)CCCCC(=O)OCC(CC)CCCC (centres undefined)		Potency [2]: 10.5 mmol/kg/day
CCN(CC)C(=S)[S-].CCN(CC)C(=S)[S-].[Cd+2]	inactive; no positive results	
O=C(O)C(Cl)Cl		Potency [2]: 0.923 mmol/kg/day
O=[N+]([O-])c1ccc(Nc2ccc(Nc3ccccc3)c(S(=O)(=O)O)c2)c([N+](=O)[O-])c1	inactive; no positive results	
O=P1(NCCCl)OCCCN1CCCl (centres undefined)		Potency (TD50_Mouse_Note: positive test results only by intraperitoneal or intravenous injection, TargetSites_Mouse_Female: hematopoietic system): 0.0194 mmol/kg/day
[O]=[Nb](=[O])[OH]		outcome [3]: inactive
Cc1cc(O)cc(C)c1N(C)C	inactive; no positive results	
CC1=C(/C=C/C(C)=C/C=C/C(C)=C/C(=O)O)C(C)(C)CCC1	inactive; no positive results	

Compound	outcome [1]	also measured
C=CCOc1ccccc1OCC(O)CNC(C)C (centres undefined)	inactive; no positive results	
O=C1C(c2[nH]c3ccc(S(=O)(=O)O)cc3c2O)=Nc2ccc(S(=O)(=O)O)cc21	inactive; no positive results	
Cn1cc(C(=O)O)c(=O)c2ccc(/C=C/c3ccc([N+](=O)[O-])o3)nc21		Potency (TargetSites_Mouse_BothSexes: hematopoietic system, lung, stomach): 0.0212 mmol/kg/day
CCCCCCC(=O)/C=C/CCCCCCCCC(=O)OC		outcome [3]: inactive
Nc1ccccc1N		Potency [2]: 4.06 mmol/kg/day
C1CO1		Potency (TD50_Mouse_Note: TD50 is harmonic mean of more than one positive test, TargetSites_Mouse_Female: harderian gland, hematopoietic system, lung, mammary gland, uterus): 1.45 mmol/kg/day
COP(=O)(OC)O/C(=C\Cl)c1cc(Cl)c(Cl)cc1Cl		Potency (TargetSites_Mouse_Female: no positive results - CPDB evaluation based on NCI Technical Report): 0.623 mmol/kg/day
COC(=O)c1ccc(C(=O)OC)cc1	inactive; no positive results	
NC1CCCCC1	inactive; no positive results	
CC/C(=C(\c1ccccc1)c1ccc(OCCN(C)C)cc1)c1ccccc1		Potency (TD50_Mouse_Note: TD50 is harmonic mean of more than one positive test, TargetSites_Mouse_Female: ovary): 0.00779 mmol/kg/day
CN(C)C(=O)NC1CC2CC1C1CCCC21 (centres undefined)	inactive; no positive results	
CCSCCC(N)C(=O)O (centres undefined)		Potency (TD50_Mouse_Note: TD50 is harmonic mean of more than one positive test, greater than ten-fold variation among TD50 values for positive res, TargetSites_Mouse_Female: liver): 0.437 mmol/kg/day
O=S(O)S(=O)(=O)O	inactive; no positive results	
O=CNNC=O		Potency (TD50_Mouse_Note: TD50 is harmonic mean of more than one positive test, TargetSites_Mouse_Female: lung): 7.59 mmol/kg/day
CC(=O)OC[C@H]1O[C@H](O[C@]2(COC(C)=O)O[C@H](COC(=O)C(C)C)[C@@H](OC(=O)C(C)C)[C@@H]2OC(=O)C(C)C)[C@H](OC(=O)C(C)C)[C@@H](OC(=O)C(C)C)[C@@H]1OC(=O)C(C)C	inactive; no positive results	
C=C(C)C(=O)OC	inactive; no positive results	
CC(C)(C)O		Potency (TargetSites_Mouse_Female: thyroid gland): 295 mmol/kg/day
FCC(F)(F)F	inactive; no positive results	
OCC1CO1 (centres undefined)		Potency (TD50_Mouse_Note: TD50 is harmonic mean of more than one positive test, TargetSites_Mouse_Female: harderian gland, mammary gland, skin, subcutaneous tissue, uterus): 0.468 mmol/kg/day
